Consider one compound from US9296691B2, “Inhibitors of p75 receptor and their uses” (Horacio Uri Saragovi, priority 2010, dated 2016).

SMILES strings stand for the structures.

The test system of one experiment is B104 cells. The experiment is described as follows: Pro-NTF killing assay (MTT), B104 cells. The experiment is classed as cell-based. The settings on record: pro-NTF 50 nM + I-B 20 μM, 72 hours. As for the experimental part:
(§1) The effect of I-B on the pro-apoptotic function of pro-NGF or pro-BDNF was tested in functional MTT assays measuring cell metabolism (FIG. 1B).
(§2) Cells (5,000 cells/well) were cultured in 96-well plates (Falcon, Lincoln Park, N.J.) in normal culture media (RPMI1640, Hepes, Glutamine, 5% serum). Wells were supplemented with NGF, BDNF, pro-NGF, or pro-BDNF (Alomone Labs) (50 nM final), in the presence or absence of I-B (20 μM final). Wells containing all culture conditions but no cells were used as blanks. The growth/survival profile of the cells was quantified using MTT (Sigma) 72 hours after plating. Optical density readings of MTT were done in a Benchmark Plus microplate Spectrophotometer (BioRad) at 595 nm with blanks subtracted.

The test system of a further experiment is nnr5 cells. The experiment is described as follows: Pro-NTF killing assay (MTT), nnr5 cells. The experiment is classed as cell-based. The conditions noted are these: pro-NTF 50 nM + I-B 20 μM, 72 hours. As for the experimental part:
as §1, §2

Experiment [1] concerns NGI (NFL-GCL-IPL) retinal layers. The experiment is described as follows: ON axotomy model, retinal NGI thickness by FD-OCT. In kind it is in vivo. The settings on record: rat ON axotomy, 3 μg intravitreal immediately after axotomy, days 11 and 14, versus untreated axotomy. As for the experimental part:
Antagonists of p75NTR prevented loss of retinal structure after ON axotomy. The relative in vivo efficacy for I-B and LM-24 was tested using the ON axotomy model. A quantitative non-invasive structural endpoint, FD-OCT, was performed in the same animal over time to measure the integrity of the neuronal layers. We quantified the axons and fibers of the RGCs that contribute to the thickness of the Nerve Fiber Layer (NFL), the Ganglion Cell Layer (GCL), and the Inner Plexiform Layer (IPL), herein termed NGI. Maintenance of NGI structure correlates with RGC health (Bai et al., 2010a).
Wistar rats (female, 250-300 g; Charles River) were kept in a 12 hours dark-light cycle with food and water ad libitum. All animal manipulations were performed between 9 AM and 12 AM. […]
FD-OCT is a non-invasive method that allows time-kinetic studies in the same animal. […] In each B-scan the thickness of the NFL-GCL-IPL (NGI) was measured at four adjacent points at a distance 1.5 mm from the ON head. […]
For studies in the glaucoma animal model the injections were performed at days 14 and 21 after cauterization. […] Thus, in this paradigm there is pre-existing damage for 14 days before treatment (measured at ˜8% RGC death (Shi et al., 2007; Shi et al., 2008)); and the treatments require long-lived efficacy in the constant presence of retinal stress due to high IOP. […]

A further experiment deals with TNF-α. Put plainly: Glaucoma model, retinal TNF-α by western blot. The conditions noted are these: intravitreal injection at glaucoma day 14, measured 3 and 5 days later. The experiment is classed as in vivo, rat. As for the experimental part:
After 14-days of glaucoma eyes were injected intravitreally with p75NTR antagonists, and the levels of TNF-α and α2M were measured three days later (e.g. day 17 of glaucoma) and five days later (e.g. day 19 of glaucoma) (FIG. 3A).
Both retinas of each animal were detergent solubilized, and studied in independent gels standardized to loading control. The ratio of the glaucoma eye ±treatment versus the normal contralateral eye was calculated, and results were averaged ±sem, n=3 animals per group. In glaucoma, all drug treatments were done at day 14 of hypertension. In one group the retinas were harvested at day 17 of glaucoma (3 days after intraocular injection) and in the other group the retinas were harvested at day 19 of glaucoma (5 days after intraocular injection). Normal eyes treated with NGF-A were collected in the indicated days. After SDS-PAGE and western transfer, membranes were immunoblotted with rabbit polyclonal antibodies against TNF-α (Preprotech) or α2M (Santa Cruz) at a 1:3000 dilution. Goat anti-rabbit secondary antibodies conjugated to horseradish peroxidase (Sigma) were used at a 1:10,000 dilution. Loading was controlled with antibodies to β-actin (Sigma). For digital quantification, membranes were scanned and analyzed using ImageJ software.
In general terms: Immunoblotting shows a protein as a band on a membrane.

As for `CC(C)NC(=O)N(C(=O)Cn1cnc2c1c(=O)n(C)c(=O)n2C)C(C)C` [I-B, 1,3-Diisopropyl-1-[2-(1,3-dimethyl-2,6-dioxo-1,2,3,6-tetrahydro-purin-7-yl)-acetyl]-urea], the “cell viability (MTT) in presence of pro-NGF or pro-BDNF” value in the experiment with B104 cells and with nnr5 cells was “prevented the loss of cell viability” throughout. In addition, in experiment [1], the “preservation of NGI thickness (FD-OCT)” value is given as “significant preservation of the NGI thickness”. Besides, the “TNF-α level in glaucomatous retina, fold-change versus normal retina” value with TNF-α was “time-dependent inhibition”.
